Assay results published in PMC3038857, “Using Nuclear Receptor Activity to Stratify Hepatocarcinogens” (PLoS ONE, 2011).

Key:
[1] = system: Rat Liver; conditions: chronic rat study, liver; ref ToxRefDB; cited from earlier work
[2] = system: Rat Liver; conditions: chronic rat study, liver; ref ToxRefDB; cited from earlier work; remark: listed apart in the source
[3] = system: HMGCS2; assay: CLZD_HMGCS2: Change in expression of HMGCS2 (primary human hepatocytes); assay type: cell-based; conditions: 24 hr
Method: This is a collection of multiplexed gene expression assays focused on Phase I and II xenobiotic metabolizing enzymes and transporters. Human primary cell cultures were treated with chemicals at 5 concentrations (0.004-40 [drawing 42] M) for 6, 24 and 48 hr. Concentration- and time-response profiles of chemicals were measured by the expression of key nuclear receptor target genes, activities of CYP1A enzymes (EROD), and cell morphology. Fourteen gene targets were monitored by quantitative nuclease protection assay including: six representative cytochrome P-450 genes, four hepatic transporters, three Phase II conjugating enzymes, and one endogenous metabolism gene involved in cholesterol synthesis. The target genes associated with nuclear receptor pathways are as follows: [drawing 43] and [drawing 44] with [drawing 45]; [drawing 46] , [drawing 47] , [drawing 48] , [drawing 49] , [drawing 50] and [drawing 51] with [drawing 52]; [drawing 53] , [drawing 54] , [drawing 55] and [drawing 56] with [drawing 57]; [drawing 58] with [drawing 59]; and [drawing 60] with [drawing 61] . Assays were run in primary human hepatocyte cultures by CellzDirect Invitrogen Inc. (Durham, NC), in collaboration with EPA.
Multiplexed Gene Expression in Human Primary Hepatocytes: This is a collection of multiplexed gene expression assays focused on Phase I and II metabolic enzymes and transporters. […] Fourteen gene targets were monitored by quantitative nuclease protection assay: six representative cytochrome P450 genes, four hepatic transporters, three Phase II conjugating enzymes, and one endogenous metabolism gene involved in cholesterol synthesis. Cells were exposed at 5 concentrations (0.004-40 µM) for 6, 24 or 48 hr. Gene targets are sentinels for five nuclear receptor signaling pathways: AhR, CAR, PXR, FXR, and PPARα. All gene are associated with nuclear receptor pathways: CYP1A1 and CYP1A2 with AHR; ABCB1, ABCG2, CYP2B6, CYP2C9, CYP2C19 and UGT1A1 with CAR; CYP3A4, GSTA2, SLCO1B1 and SULT2A1 with PXR; HMGCS2 with PPARA; and ABCB11 with FXR. […] Detailed description of the methods, data and analysis methods for this dataset will be presented in a separate publication.

[4] = system: Rat Liver; conditions: chronic rat study, liver; ref ToxRefDB; cited from earlier work; remark: listed apart in the source
[5] = molecular target: T1, LXRb (NR1H2) (Homo sapiens, UniProt P55055); assay: ATG_LXRb_TRANS: Factorial reporter gene assay (HepG2); assay type: cell-based; conditions: HepG2
T1 construct: expressed in transfected cells; host or cells: HepG2
T1 sequence (P55055 1-460): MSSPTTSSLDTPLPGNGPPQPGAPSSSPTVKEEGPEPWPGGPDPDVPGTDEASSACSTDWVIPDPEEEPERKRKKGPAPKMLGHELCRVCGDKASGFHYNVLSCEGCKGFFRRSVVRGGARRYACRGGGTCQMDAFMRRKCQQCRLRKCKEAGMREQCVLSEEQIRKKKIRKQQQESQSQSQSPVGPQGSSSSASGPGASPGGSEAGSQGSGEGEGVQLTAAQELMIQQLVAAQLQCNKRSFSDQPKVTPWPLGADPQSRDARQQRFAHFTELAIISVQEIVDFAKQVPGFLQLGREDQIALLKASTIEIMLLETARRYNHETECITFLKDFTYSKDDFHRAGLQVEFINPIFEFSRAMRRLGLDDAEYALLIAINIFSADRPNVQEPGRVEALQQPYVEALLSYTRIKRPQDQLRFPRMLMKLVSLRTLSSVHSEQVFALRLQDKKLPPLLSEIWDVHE
Method: (§1) A multiple reporter transcription unit (MRTU) library consisting of 48 transcription factor binding sites was transfected into the HepG2 human liver hepatoma cell line. In addition to the cis-acting reporter genes (CIS), a modification of the approach was used to generate a trans-system (TRANS) with a mammalian one-hybrid assay consisting of an additional 25 MRTU library reporting the activity of nuclear receptor super-family members. […] These assays were performed by Attagene Inc. (Morrisville NC) under contract to EPA.
(§2) In addition to the cis-acting reporter genes (CIS), a modification of the approach was used to generate a trans-system (TRANS) with a mammalian one-hybrid assay consisting of an additional 25 MRTU library reporting the activity of nuclear receptor super-family members. […] Chemicals were then tested in the CIS and TRANS assays at seven concentrations starting at the MTC and followed by three-fold serial dilutions. These assays were performed by Attagene Inc. (Morrisville NC) under contract to EPA. Detailed description of the methods, data and analysis methods for this dataset will be presented in a separate publication.

[6] = molecular target: T2, AHR (aryl hydrocarbon receptor) (Homo sapiens, UniProt P35869); assay: ATG_Ahr_CIS: Factorial reporter gene assay (multiplexed transcription reporter, HepG2); assay type: cell-based; conditions: HepG2
T2 construct: endogenous in cells; host or cells: HepG2
T2 sequence (P35869 11-848): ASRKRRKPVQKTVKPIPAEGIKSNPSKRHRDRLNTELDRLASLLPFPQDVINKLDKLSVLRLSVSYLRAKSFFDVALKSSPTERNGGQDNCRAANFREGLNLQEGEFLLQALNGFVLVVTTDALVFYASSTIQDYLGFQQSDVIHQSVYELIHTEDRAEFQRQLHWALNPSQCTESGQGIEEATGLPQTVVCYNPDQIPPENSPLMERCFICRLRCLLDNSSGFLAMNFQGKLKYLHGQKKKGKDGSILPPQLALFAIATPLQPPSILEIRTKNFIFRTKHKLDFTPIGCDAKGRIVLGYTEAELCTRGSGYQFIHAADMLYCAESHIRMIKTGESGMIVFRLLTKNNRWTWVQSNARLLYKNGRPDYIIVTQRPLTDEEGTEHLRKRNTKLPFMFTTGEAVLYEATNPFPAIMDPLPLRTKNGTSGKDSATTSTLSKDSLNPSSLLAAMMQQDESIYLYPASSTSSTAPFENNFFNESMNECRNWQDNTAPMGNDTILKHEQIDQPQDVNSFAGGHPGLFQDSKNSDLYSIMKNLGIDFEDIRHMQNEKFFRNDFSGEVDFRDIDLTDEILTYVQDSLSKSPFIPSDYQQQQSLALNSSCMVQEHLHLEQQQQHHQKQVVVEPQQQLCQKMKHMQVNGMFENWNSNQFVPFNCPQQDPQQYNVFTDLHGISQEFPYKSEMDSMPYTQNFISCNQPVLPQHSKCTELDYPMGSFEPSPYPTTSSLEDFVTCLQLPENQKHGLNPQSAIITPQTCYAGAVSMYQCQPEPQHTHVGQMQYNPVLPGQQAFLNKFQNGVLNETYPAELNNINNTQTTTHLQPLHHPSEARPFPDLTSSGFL
Method: as §1, §2

[7] = molecular target: T3, PPARG (peroxisome proliferator-activated receptor gamma) (Homo sapiens, UniProt P37231); assay: ATG_PPARg_TRANS: Factorial reporter gene assay (HepG2); assay type: cell-based; conditions: HepG2
T3 construct: expressed in transfected cells; host or cells: HepG2
T3 sequence (P37231 1-505): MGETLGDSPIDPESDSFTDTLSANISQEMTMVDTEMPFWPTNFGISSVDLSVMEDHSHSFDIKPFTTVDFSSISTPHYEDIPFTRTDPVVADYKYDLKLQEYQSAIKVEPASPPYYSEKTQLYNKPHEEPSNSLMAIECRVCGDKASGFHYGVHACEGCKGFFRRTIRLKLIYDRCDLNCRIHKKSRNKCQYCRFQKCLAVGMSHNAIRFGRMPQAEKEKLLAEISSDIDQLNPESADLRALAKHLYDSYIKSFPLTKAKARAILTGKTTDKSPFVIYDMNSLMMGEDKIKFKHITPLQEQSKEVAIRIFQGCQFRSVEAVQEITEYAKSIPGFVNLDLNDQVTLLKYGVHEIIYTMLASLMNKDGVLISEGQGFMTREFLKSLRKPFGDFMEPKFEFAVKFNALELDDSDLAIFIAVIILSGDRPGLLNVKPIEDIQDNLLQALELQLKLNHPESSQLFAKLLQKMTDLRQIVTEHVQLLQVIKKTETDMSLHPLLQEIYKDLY
Method in brief: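 HepG2 cells transfected with multiplexed reporter libraries: cis-acting binding-site reporters (CIS) and a one-hybrid nuclear-receptor trans system (TRANS). Chemicals tested at seven concentrations, starting at the maximum tolerated concentration with three-fold serial dilutions.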

[8] = molecular target: T4, LXRa (NR1H3) (Homo sapiens, UniProt Q13133); assay: ATG_LXRa_TRANS: Factorial reporter gene assay (HepG2); assay type: cell-based; conditions: HepG2
T4 construct: expressed in transfected cells; host or cells: HepG2
T4 sequence (Q13133 1-447): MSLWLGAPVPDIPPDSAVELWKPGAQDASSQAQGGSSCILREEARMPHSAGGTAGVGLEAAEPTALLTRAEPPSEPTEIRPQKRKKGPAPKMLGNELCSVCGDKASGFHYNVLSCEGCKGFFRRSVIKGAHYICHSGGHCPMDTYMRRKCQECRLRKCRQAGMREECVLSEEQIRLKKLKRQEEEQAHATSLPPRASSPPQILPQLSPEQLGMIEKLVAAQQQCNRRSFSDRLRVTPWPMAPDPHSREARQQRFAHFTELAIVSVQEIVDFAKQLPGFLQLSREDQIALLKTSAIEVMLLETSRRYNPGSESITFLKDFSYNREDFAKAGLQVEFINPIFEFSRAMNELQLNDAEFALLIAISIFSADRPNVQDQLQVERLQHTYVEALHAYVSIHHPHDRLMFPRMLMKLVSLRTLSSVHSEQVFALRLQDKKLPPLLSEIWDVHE
Method: as §1, §2

| Structure (SMILES) | CHR_Rat_Liver_1_AnyLesion [1] | CHR_Rat_Liver_2_PreneoplasticLesion [2] | CLZD_HMGCS2_24 [3] | CHR_Rat_Liver_3_NeoplasticLesion [4] | ATG_LXRb_TRANS [5] | ATG_Ahr_CIS [6] | ATG_PPARg_TRANS [7] | ATG_LXRa_TRANS [8] |
| --- | --- | --- | --- | --- | --- | --- | --- | --- |
| C[N+]1(C)CCCCC1.[Cl-] [row 193] | 0 | 0 | 5.889 | 0 |  |  |  |  |
| COC(=O)c1ccccc1S(=O)(=O)NC(=O)Nc1nc(C)nc(OC)n1 [row 210] | 0 | 0 |  | 0 | 4.215 | 4.337 |  |  |
| CN=C=S [row 205] |  |  |  |  |  |  | 4.215 | 4.495 |
